The values below are quoted from earlier work in patent US8679507B2, “Testosterone olfaction” (priority 2012, dated 2014).

Structures are written as SMILES.

In this data set the test system is human females. As to conditions: female college students, upper lip exposed; follicular phase.

With `C[C@]12CC[C@@H](O)C[C@@H]1CC[C@@H]1[C@@H]2CC[C@]2(C)C=CC[C@@H]12` [androstenol], the “frequency of the LH pulse” value was “decreased”.
